Results on five compounds are retold here after ChEMBL document CHEMBL3886513, “Benzothiazole-based pyridinium compounds” (2016).

Test [1] addresses Acetylcholinesterase (Electrophorus electricus, UniProt O42275). In words: (§1) AChE/BuChE Inhibition Assay: The cholinesterase assays were performed using colorimetric method reported by Ellman. The appearance of product was monitored at 412 nm for 5 min using a spectrophotometer. The reaction rates were compared and the percent inhibition due to the presence of test compounds was calculated. Inhibition curve was obtained for each compound. The linear regression parameters were determined and the IC50 values extrapolated.

Test [2] has as its target Acetylcholinesterase (Homo sapiens, UniProt P22303). Described as §1.
The target of another test is Cholinesterase (Homo sapiens, UniProt P06276). The test is described as §1.
Cholinesterase, sequence (P06276 whole entry): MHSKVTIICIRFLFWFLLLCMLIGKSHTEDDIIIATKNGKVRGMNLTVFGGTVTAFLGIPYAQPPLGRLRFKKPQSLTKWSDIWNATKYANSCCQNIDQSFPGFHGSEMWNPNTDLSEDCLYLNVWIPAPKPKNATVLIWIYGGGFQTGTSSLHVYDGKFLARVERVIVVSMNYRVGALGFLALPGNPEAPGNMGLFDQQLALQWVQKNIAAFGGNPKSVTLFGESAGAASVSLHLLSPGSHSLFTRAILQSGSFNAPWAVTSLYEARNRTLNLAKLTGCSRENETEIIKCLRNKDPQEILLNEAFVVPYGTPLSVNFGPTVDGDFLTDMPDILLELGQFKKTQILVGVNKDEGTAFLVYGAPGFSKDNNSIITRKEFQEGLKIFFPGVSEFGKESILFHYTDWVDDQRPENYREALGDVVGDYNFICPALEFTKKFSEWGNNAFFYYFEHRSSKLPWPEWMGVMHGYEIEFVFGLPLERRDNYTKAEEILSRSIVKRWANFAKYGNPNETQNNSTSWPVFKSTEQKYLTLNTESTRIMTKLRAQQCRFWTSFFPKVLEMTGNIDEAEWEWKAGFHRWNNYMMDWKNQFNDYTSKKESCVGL

The structures appear in SMILES notation.

Acetylcholinesterase (Homo sapiens, UniProt P22303), sequence (P22303 whole entry): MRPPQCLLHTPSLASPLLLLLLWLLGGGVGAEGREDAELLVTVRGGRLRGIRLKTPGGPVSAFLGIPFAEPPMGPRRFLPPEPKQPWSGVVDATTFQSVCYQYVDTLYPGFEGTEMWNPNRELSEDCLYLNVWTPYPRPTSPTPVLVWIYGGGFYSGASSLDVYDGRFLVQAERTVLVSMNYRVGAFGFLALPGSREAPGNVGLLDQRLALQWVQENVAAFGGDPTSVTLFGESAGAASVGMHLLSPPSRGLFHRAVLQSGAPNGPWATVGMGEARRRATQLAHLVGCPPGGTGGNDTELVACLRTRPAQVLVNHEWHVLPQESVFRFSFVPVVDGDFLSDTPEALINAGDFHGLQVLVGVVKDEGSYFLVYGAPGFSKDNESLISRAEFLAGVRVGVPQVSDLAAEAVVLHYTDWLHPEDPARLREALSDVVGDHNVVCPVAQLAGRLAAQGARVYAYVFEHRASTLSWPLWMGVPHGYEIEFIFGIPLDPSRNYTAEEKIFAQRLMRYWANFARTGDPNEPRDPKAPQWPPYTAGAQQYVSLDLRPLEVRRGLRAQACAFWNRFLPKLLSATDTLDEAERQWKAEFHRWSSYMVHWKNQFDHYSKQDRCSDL
Acetylcholinesterase (Electrophorus electricus, UniProt O42275), sequence (O42275 whole entry): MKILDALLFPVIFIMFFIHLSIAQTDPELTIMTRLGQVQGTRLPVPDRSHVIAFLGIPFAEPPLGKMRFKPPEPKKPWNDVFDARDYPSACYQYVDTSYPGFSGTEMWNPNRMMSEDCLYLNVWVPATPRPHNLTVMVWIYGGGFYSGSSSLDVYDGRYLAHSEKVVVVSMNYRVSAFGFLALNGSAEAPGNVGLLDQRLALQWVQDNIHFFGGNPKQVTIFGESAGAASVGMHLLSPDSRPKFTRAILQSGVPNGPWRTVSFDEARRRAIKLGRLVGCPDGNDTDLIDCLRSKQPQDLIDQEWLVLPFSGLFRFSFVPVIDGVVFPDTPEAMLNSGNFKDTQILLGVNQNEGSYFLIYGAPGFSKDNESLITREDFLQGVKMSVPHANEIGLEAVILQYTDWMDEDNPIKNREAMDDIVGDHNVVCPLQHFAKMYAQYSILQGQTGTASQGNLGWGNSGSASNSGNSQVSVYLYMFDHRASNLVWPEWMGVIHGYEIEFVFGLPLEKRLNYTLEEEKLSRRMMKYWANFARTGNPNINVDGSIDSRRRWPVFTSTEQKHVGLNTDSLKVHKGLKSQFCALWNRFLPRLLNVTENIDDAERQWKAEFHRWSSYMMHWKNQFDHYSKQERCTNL

Take `COc1ccc2nc(NCCc3cc[n+](Cc4ccccc4)cc3)sc2c1`: the IC50 is 441 nM at Acetylcholinesterase [1], 186 nM at Acetylcholinesterase [2] and 3010 nM on Cholinesterase.

Consider `O=[N+]([O-])c1ccc2nc(NCCc3cc[n+](Cc4ccc(F)cc4)cc3)sc2c1`, for which the IC50 at Acetylcholinesterase [1] is 25 nM; at Acetylcholinesterase [2], 96 nM; at Cholinesterase it was 11900 nM.

For the compound `COc1ccc2nc(NCCc3cc[n+](Cc4c(F)cccc4F)cc3)sc2c1`, the IC50 was 408 nM on Acetylcholinesterase [1], 203 nM on Acetylcholinesterase [2] and 826 nM on Cholinesterase.

As for `COc1ccc2nc(NCCc3cc[n+](Cc4ccc(F)cc4)cc3)sc2c1`, the IC50 at Acetylcholinesterase [1] is 542 nM; at Acetylcholinesterase [2], 223 nM; on Cholinesterase, 5630 nM.

Take `Fc1ccc(C[n+]2ccc(CCNc3nc4ccc(F)cc4s3)cc2)cc1`: the IC50 was 500 nM on Acetylcholinesterase [1], 269 nM at Acetylcholinesterase [2] and 8160 nM on Cholinesterase.

For orientation: IC50 means the concentration at which inhibition is half-maximal.
